Data on 16 compounds can be found in patent US9364555B2, “Pederin and psymberin agents” (priority 2011, dated 2016).

Read-outs that look alike come from different tables or passages of the source.

Assay [1] deals with HCT116 colon cancer cells. The assay can be described thus: cell viability study, MTS assay with a three day incubation period. It counts as cell-based. Here is the method: The potency of the above-described compounds was measured in cell viability studies using HCT116 colon cancer cells with an MTS assay with a three day incubation period.
The second generation analogs were evaluated for their ability to inhibit HCT116 cell growth through the same protocol that was used to evaluate the initial set of compounds.

The subject of assay [2] is p53 knockout variant of the HCT116 cell line. Kind of assay: test against p53 knockout variant of the HCT116 cell line. It counts as cell-based. An excerpt:
The identity of the alkoxy group in the acyl aminal subunit appears to exert little influence over the biological activity, but the presence of the alkoxy group enhances potency by at least one order of magnitude (entries 1-4 vs. entry 5). […] This has also been observed in psymberin analogs that lack a substituent at that position (Huang et al., Org. Lett. 2009, 11, 867). […] The approximately one order of magnitude potency reduction of the des-methylene analog (entry 7), though consistent with results from the Nakata group, was somewhat surprising based on the minimal structural perturbation that this change effects on the hydrogen bond donors and acceptors in the molecule (Fukui et al., Bioorg. Med. Chem. Lett. 1997, 7, 2081).

Assay [3] deals with HCT116 colon cancer cells. To be noted: literature value, read-out: GI50 value in the literature for this cell line; cited from earlier work.
Where [4] appears, read: HCT116 cell growth, same protocol as Table 1, Table 2, second generation analogs.
The mark [5] stands for this setting: HCT116 cells, MTS assay, three day incubation, Table 1, natural products and analogs.
[6] abbreviates: Homo sapiens, HCT-116, HCT116 cell growth, same protocol as Table 1, Table 2, second generation analogs.

Consider “4-desmethylene-10-desmethoxy 13-O-methylpederin [Compound 49]”, for which the GI50 (in general, the concentration giving 50% growth inhibition) in assay [1] (setting [4]) was 79 ± 8 nM.

For the compound 8-desmethoxy psymberin [Compound 47], in assay [1] (setting [4]), it took 0.83 ± 0.1 nM to inhibit growth by half (GI50).

10-desmethoxy pederin [Compound 36e]: it took 7.7 ± 0.24 nM to inhibit growth in assay [1] (setting [5]) by half (GI50).

Consider 10-desmethoxy pedestatin [Compound 48], for which the GI50 in assay [1] (setting [4]) came to 0.068 ± 0.02 nM.

On to “10-dimthoxybenzyloxy pederin [Compound 36d]”, for which the concentration for 50% growth inhibition (GI50) in assay [1] (setting [5]) stood at 0.32 ± 0.09 nM.

The compound “10-trifluoroethoxy pederin [Compound 36c]” displayed a GI50 in assay [1] (setting [5]) of 0.55 ± 0.024 nM.

13-OTBS pederin gave a GI50 in assay [1] (setting [5]) of 3.1 ± 0.1 nM.

In turn, `C=C1C[C@](OC)([C@H](O)C(=O)N[C@@H](OC)[C@@H]2C[C@@H](O)C(C)(C)[C@@H](C[C@@H](COC)OC)O2)O[C@H](C)[C@@H]1C` [Compound 1, pederin] came in with a GI50 in assay [1] (setting [5]) of 0.6 ± 0.1 nM. Moreover, the “activity against p53 knockout variant of HCT116 compared with HCT116” value (from here on “activity … compared with HCT116”) in assay [2] is “essentially identical activity”.

As for `C=C(C)CC(OC)[C@H](O)C(=O)N[C@@H](OC)[C@@H]1C[C@@H](O)C(C)(C)[C@@H](C[C@H](O)[C@@H](C)[C@H]2Cc3c(C)c(O)cc(O)c3C(=O)O2)O1` (stereo partly drawn) [Compound 2, psymberin], the GI50 in assay [1] (setting [5]) is 0.052 ± 0.02 nM; in assay [3], 0.16 nM.

Regarding `C=C1CC(OC)(C(O)C(=O)NC(OCC)C2CC(O)C(C)(C)C(CC(COC)OC)O2)OC(C)C1C` (stereo not drawn) [Compound 36b, 10-ethoxy pederin], in assay [1] (setting [5]), growth was halved (GI50) at 0.34 ± 0.08 nM.

For the compound `C=C1C[C@](OC)([C@H](O)C(=O)N/C=C2/C[C@@H](O)C(C)(C)[C@@H](C[C@@H](COC)OC)O2)O[C@H](C)[C@@H]1C` [Compound 37, pederin enamide], in assay [1] (Homo sapiens, HCT-116, 72 h, HCT116 cells, MTS assay, three day incubation, Table 1, natural products and analogs), the GI50 worked out at 27 ± 0.88 nM. For the same compound, the “activity … compared with HCT116” value in assay [2] is given as “essentially identical activity”.

`C=C1C[C@](OC)([C@H](O)C(=O)N[C@@H](OC)[C@@H]2C[C@@H](OC)C(C)(C)[C@@H](C[C@@H](COC)OC)O2)O[C@H](C)[C@@H]1C` [Compound 41, 13-O-methyl pederin] yielded a GI50 in assay [1] (setting [5]) of 0.084 ± 0.01 nM. Also, in assay [2], the “activity … compared with HCT116” value was “essentially identical activity”.

Consider `COC[C@H](C[C@H]1O[C@H]([C@H](C)NC(=O)[C@@H](O)[C@@]2(OC)CC[C@@H](C)[C@@H](C)O2)C[C@@H](OC)C1(C)C)OC` [Compound 51, 4-desmethylene-10-(S)-methyl 13-O-methylpederin], for which, in assay [1] (setting [6]), the GI50 amounted to 42 ± 5 nM.

In assay [1] (setting [6]), `COC[C@H](C[C@H]1O[C@H]([C@@H](C)NC(=O)[C@@H](O)[C@@]2(OC)CC[C@@H](C)[C@@H](C)O2)C[C@@H](OC)C1(C)C)OC` [Compound 52, 4-desmethylene-10-(R)-methyl 13-O-methylpederin] had a GI50 of over 9000 nM.

C4-desmethylene pederin [Compound 40]: in assay [1] (setting [5]), the GI50 turned out to be 6.5 ± 0.8 nM. In addition, the “activity … compared with HCT116” value in assay [2] is reported as “essentially identical activity”.

The compound pedestatin [Compound 46] displayed a GI50 in assay [1] (setting [5]) of 0.046 ± 0.03 nM.
